Each structure is given as a SMILES string. Changes are numbered by the printed parent chain.

These results are taken from US20260297542A1, “HERBICIDE RESISTANT PLANTS” (SYNGENTA CROP PROTECTION AG, priority 2023, published 2026).

Assay [1] has as its target T1, AtPPO1 Y426M T461Q L479M (SEQ ID NO.132) (Arabidopsis thaliana, UniProt P55826, L479M/T461Q/Y426M).
T1 construct: made in house; host or cells: E. coli BL21 (DE3) hemG, crude extract
T1 sequence (P55826 35-537 Y426M/T461Q/L479M): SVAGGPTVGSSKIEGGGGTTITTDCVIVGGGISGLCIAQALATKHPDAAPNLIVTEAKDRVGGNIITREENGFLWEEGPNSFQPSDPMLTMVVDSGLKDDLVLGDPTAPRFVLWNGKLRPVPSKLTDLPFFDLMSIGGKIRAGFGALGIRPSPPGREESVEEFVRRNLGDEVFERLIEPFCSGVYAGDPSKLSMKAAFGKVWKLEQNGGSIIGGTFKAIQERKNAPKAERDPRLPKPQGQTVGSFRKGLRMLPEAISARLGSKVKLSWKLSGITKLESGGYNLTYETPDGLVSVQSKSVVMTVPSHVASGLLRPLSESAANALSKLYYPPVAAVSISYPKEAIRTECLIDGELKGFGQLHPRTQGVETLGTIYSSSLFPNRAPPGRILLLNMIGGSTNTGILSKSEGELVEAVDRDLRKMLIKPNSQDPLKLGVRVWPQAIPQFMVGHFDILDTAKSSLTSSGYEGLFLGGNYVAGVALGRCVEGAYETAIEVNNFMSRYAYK
Description: fluorescent Protoporphyrinogen Oxidase assay, crude extract. As to conditions: read-out: percentage inhibition. The format is biochemical.

Assay [2] concerns the target T2, AtPPO1 Y361D V365L (SEQ ID NO.135) (Arabidopsis thaliana, UniProt P55826, V365L/Y361D).
T2 construct: made in house; host or cells: E. coli BL21 (DE3) hemG, crude extract
T2 sequence (P55826 35-537 Y361D/V365L): T1 sequence (P55826 35-537 Y426M/T461Q/L479M) with Y327D, V331L, M392Y, Q427T, M445L
The description is as above. The following applies: for improvement over SEQ ID NO:124: AtPPO1 Y361D V365L (SEQ ID NO:135) vs SEQ ID NO:124; for inhibition at 0.1 ppm / inhibition at 1 ppm / inhibition at 10 ppm / inhibition at 100 ppm: read-out: percentage inhibition. It counts as biochemical.

As for `C#CCN1C(=O)C(F)(F)Oc2cc(F)c(-n3c(=O)n(C)c(=S)n(C)c3=O)cc21` [Herbicide B, trifludimoxazin], in assay [1], the inhibition at 0.1 ppm stood at 100%, the inhibition at 1 ppm came to 100%, the inhibition at 10 ppm amounted to 100% and the inhibition at 100 ppm amounted to 100%. Also, in assay [2], the “improvement over SEQ ID NO:124” value is given as “improvement over SEQ ID NO:124 was seen”, the inhibition at 0.1 ppm was 82%, the inhibition at 1 ppm came to 100% and the inhibition at 10 ppm was 100%. Besides, the inhibition at 100 ppm in assay [2] amounted to 100%.

Turning to `CCOC(=O)COc1ncccc1Oc1cc(-n2c(=O)cc(C(F)(F)F)n(C)c2=O)c(F)cc1Cl` [Herbicide A, epyrifenacil], in assay [1], the inhibition at 0.1 ppm amounted to 10%, the inhibition at 1 ppm worked out at 51%, the inhibition at 10 ppm was 77% and the inhibition at 100 ppm was determined as 100%. Further, in assay [2], the inhibition at 0.1 ppm came to 56%, the inhibition at 1 ppm is 89%, the inhibition at 10 ppm is 99% and the inhibition at 100 ppm was found to be 96%.

For the compound `CCOC(=O)[C@]1(C)CC(c2cc(-n3c(=O)n(C)c(=S)n(C)c3=O)c(F)cc2Cl)=NO1` [Herbicide D, ethyl (5S)-3-[2-chloro-5-(3,5-dimethyl-2,6-dioxo-4-thioxo-1,3,5-triazinan-1-yl)-4-fluoro-phenyl]-5-methyl-4H-isoxazole-5-carboxylate], in assay [1], the inhibition at 0.1 ppm was 58%, the inhibition at 1 ppm is 79%, the inhibition at 10 ppm came to 95% and the inhibition at 100 ppm was 100%. Also, in assay [2], the “improvement over SEQ ID NO:124” value is “improvement over SEQ ID NO:124 was seen”, the inhibition at 0.1 ppm was found to be 2%, the inhibition at 1 ppm amounted to 63% and the inhibition at 10 ppm turned out to be 93%. In assay [2], the inhibition at 100 ppm was determined as 100%.

For `CC(C)N(C)S(=O)(=O)NC(=O)c1cc(-n2c(=O)cc(C(F)(F)F)n(C)c2=O)c(F)cc1Cl` [Herbicide E, saflufenacil], in assay [1], the inhibition at 0.1 ppm was 0%, the inhibition at 1 ppm stood at 26%, the inhibition at 10 ppm was 70% and the inhibition at 100 ppm came to 100%. Further, in assay [2], the “improvement over SEQ ID NO:124” value was “improvement over SEQ ID NO:124 was seen”, the inhibition at 0.1 ppm is 0%, the inhibition at 1 ppm worked out at 31% and the inhibition at 10 ppm came out at 83%. Further, in assay [2], the inhibition at 100 ppm worked out at 100%.

For `CCOC(=O)C1(C)CC(c2cc(-n3c(=O)cc(C(F)(F)F)n(C)c3=O)c(F)cc2Cl)=NO1` (centres unmarked) [Herbicide C, 3-(2-chloro-4-fluoro-5-(3-methyl-2,6-dioxo-4-trifluoromethyl-3,6-dihydropyrimidin-1(2H)-yl)phenyl)-5-methyl-4,5-dihydroisoxazole-5-carboxylic acid ethyl ester], in assay [1], the inhibition at 0.1 ppm amounted to 26%, the inhibition at 1 ppm was 54%, the inhibition at 10 ppm stood at 75% and the inhibition at 100 ppm is 100%. Besides, in assay [2], the “improvement over SEQ ID NO:124” value is given as “improvement over SEQ ID NO:124 was seen”, the inhibition at 0.1 ppm amounted to 30%, the inhibition at 1 ppm worked out at 84% and the inhibition at 10 ppm worked out at 94%. Also, the inhibition at 100 ppm in assay [2] turned out to be 100%.

For orientation: inhibition means the percentage by which the read-out fell short of the control.
